Reference: PubChem BioAssay (NCI)
Values joined by “and” are separate entries in the source; they are usually repeats but may differ in a detail not shown here. Equal values may be shown once.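 1) Cells in 96-well plates. 2) Compound, 48 h, 5 concentrations. 3) Linear interpolation between surrounding doses. 4) Unreached endpoint = highest concentration. Here, GI50 denotes the concentration required for 50% inhibition of growth. TGI denotes the concentration required for complete inhibition of growth.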

Key:
Experiment in all cases: growth of human tumour cells (NCI), 48 h
[1] = test system: COLO 205 colon
[2] = test system: EKVX NSCLC
[3] = test system: LOX IMVI melanoma
[4] = test system: NCI-H226 lung
[5] = test system: NCI-H23 lung
[6] = test system: OVCAR-5 ovarian
[7] = test system: OVCAR-8 ovarian
[8] = test system: SK-MEL-28 melanoma
[9] = test system: SW-620 colon
[10] = test system: UACC-62 melanoma

Structure (SMILES) | GI50 [1] | TGI [1] [µM] | GI50 [2] | TGI [2] | GI50 [3] | TGI [3] | GI50 [4] | TGI [4] | GI50 [5] | TGI [5] | GI50 [6] | TGI [6] | GI50 [7] [µM] | TGI [7] [µM] | GI50 [8] [µM] | TGI [8] | GI50 [9] | TGI [9] | GI50 [10] | TGI [10]
Nc1cc(N)c2nc(-c3ccccc3)c(Nc3ccc(Cl)c(Cl)c3)nc2c1 | 11.7 µM | 31.3 | 3.83 µM | 16.2 µM | 4.38 µM | > 100 µM | 17.5 µM | 37.6 µM | 19.1 µM | 55.2 µM | 28 µM | 48.7 µM | 5.18 | 79.8 | 16.1 | 44.2 µM | 13.3 µM | 51.8 µM | 13.1 µM | 29.9 µM
Cc1cc2c(cc1C)[n+](=O)c(C(=O)C/C(=N/NC(=O)CC#N)C(=O)Nc1ccccc1C(F)(F)F)c(C)n2[O-] | – | > 100 | – | > 100 µM | – | > 100 µM | – | > 100 µM | – | > 100 µM | – | > 100 µM | – | > 100 | – | > 100 µM | – | > 100 µM | – | > 100 µM
COC12C=C(C)C(CC1)CC2C(=O)O (centres undefined) | – | > 100 | – | > 100 µM | – | > 100 µM | – | > 100 µM | – | > 100 µM | – | > 100 µM | – | > 100 | – | > 100 µM | – | > 100 µM | – | > 100 µM
CC(C)(C)C1C=C(Sc2ccccc2)C(=O)O1 (centres undefined) | – | 54.4 | – | > 100 µM | – | > 100 µM | – | > 100 µM | – | > 100 µM | – | > 100 µM | – | > 100 | – | > 100 µM | – | > 100 µM | – | > 100 µM
CC[C@@H]1C(=O)N(C)c2cnc(Nc3ccc(C(=O)NC4CCN(C)CC4)cc3OC)nc2N1C1CCCC1 | 0.00326 µM and < 0.01 µM | 0.111 | 0.0263 µM and 0.161 µM | > 10 µM and 21.5 µM | 0.00414 µM and < 0.01 µM | 1.33 µM and 1.53 µM | 0.343 µM and 0.982 µM | > 10 µM and 16.8 µM | 0.00443 µM and < 0.01 µM | > 5.03 µM and 6.4 µM | 0.00408 µM and < 0.01 µM | > 10 µM and 11.8 µM | 0.00414 | > 10 | – | 3.32 µM and 2.59 µM | 0.00299 µM and < 0.01 µM | > 10 µM and 3.1 µM | 0.0101 µM and 0.0252 µM | > 4.41 µM and 4.21 µM
N#CSc1c[nH]c2cccc(/C=C/C(=O)/C=C(/C=C/c3cccc4[nH]cc(SC#N)c34)OB(F)F)c12 | 0.293 µM | 0.856 | 0.916 µM | 5.81 µM | 0.243 µM | 0.677 µM | 2.21 µM | 5.9 µM | 0.755 µM | 3.29 µM | 1.81 µM | 6.91 µM | 0.355 | > 59.5 | 0.342 | 1.49 µM | 0.351 µM | 1.33 µM | 0.628 µM | 2.56 µM
COc1ccc(/C=C/c2nccc3ccccc23)cc1OC | – | > 10 | – | > 10 µM | – | > 10 µM | – | > 10 µM | – | > 10 µM | – | > 10 µM | – | > 10 | – | > 10 µM | – | > 10 µM | – | > 10 µM
NC(=O)c1ccc(I)c(N)c1 | > 100 µM | > 100 | > 100 µM | > 100 µM | > 100 µM | > 100 µM | > 100 µM | > 100 µM | > 100 µM | > 100 µM | > 100 µM | > 100 µM | > 100 | > 100 | > 100 | > 100 µM | > 100 µM | > 100 µM | > 100 µM | > 100 µM
C[C@@H]1OC(O)[C@@H](F)[C@H](O)[C@@H]1O (some centres undefined) | > 100 µM | > 100 | > 100 µM | > 100 µM | > 100 µM | > 100 µM | > 100 µM | > 100 µM | > 100 µM | > 100 µM | > 100 µM | > 100 µM | > 100 | > 100 | > 100 | > 100 µM | > 100 µM | > 100 µM | > 100 µM | > 100 µM
